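Dose response: 5 concentrations. Exposure: 48 h. Format: 96-well plates. Endpoint: linear interpolation; highest concentration if not reached. Here, GI50 denotes the concentration required for 50% inhibition of growth. The concentration for full growth arrest is given as TGI.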
Columns and labels:
Experiment in all cases: inhibition of tumour cell growth, NCI panel, 48 h
UO-31 renal = test system: UO-31 renal
HCT-116 colon = test system: HCT-116 colon
NCI-H522 lung = test system: NCI-H522 lung
HOP-62 NSCLC = test system: HOP-62 NSCLC
NCI-H23 lung = test system: NCI-H23 lung
CAKI-1 renal = test system: CAKI-1 renal
A498 renal = test system: A498 renal
EKVX NSCLC = test system: EKVX NSCLC
SK-MEL-5 melanoma = test system: SK-MEL-5 melanoma
MCF7 breast = test system: MCF7 breast

SMILES | GI50 (UO-31 renal) [µM] | TGI (UO-31 renal) [µM] | GI50 (HCT-116 colon) [µM] | TGI (HCT-116 colon) [µM] | GI50 (NCI-H522 lung) [µM] | TGI (NCI-H522 lung) [µM] | GI50 (HOP-62 NSCLC) [µM] | TGI (HOP-62 NSCLC) [µM] | GI50 (NCI-H23 lung) [µM] | TGI (NCI-H23 lung) [µM] | GI50 (CAKI-1 renal) [µM] | TGI (CAKI-1 renal) [µM] | GI50 (A498 renal) [µM] | TGI (A498 renal) [µM] | GI50 (EKVX NSCLC) [µM] | TGI (EKVX NSCLC) [µM] | GI50 (SK-MEL-5 melanoma) [µM] | TGI (SK-MEL-5 melanoma) [µM] | GI50 (MCF7 breast) [µM] | TGI (MCF7 breast) [µM]
[O-]c1ccccc1C=Nc1ccc2c(c1)CCC2.[O-]c1ccccc1C=Nc1ccc2c(c1)CCC2.[O]=[U+2]=[O] | 31.2 | > 100 | 13.5 | > 100 | > 100 | > 100 | > 100 | > 100 | > 100 | > 100 | > 100 | > 100 | > 100 | > 100 | > 100 | > 100 | 60.8 | > 100 |  | 
O=C(O)/C=C\C(=O)Nc1ccccn1 |  | > 100 |  | > 100 |  | > 100 |  | > 100 |  | > 100 |  | > 100 |  | > 100 |  | > 100 |  | > 100 |  | 
Cc1ccc(S(=O)(=O)N=NC=C2c3ccccc3N(O)c3ccccc32)cc1 |  | 27.1 |  | 1.94 |  | 3.86 |  | 18.8 |  | 19.3 |  | 23.8 |  | 13.9 |  | 40 |  | 18.8 |  | 
NC(=O)[C@@H](CC1CC1)[C@@H](CCC(F)(F)F)C(=O)N[C@H]1N=C(c2ccccc2)c2cccc(F)c2NC1=O | 75.3 | > 100 | > 100 | > 100 | > 100 | > 100 | > 100 | > 100 | > 100 | > 100 | > 100 | > 100 |  |  | > 100 | > 100 | 17.7 | 35.1 | 28.3 | > 100
COC(=O)CCC12CCC(=O)C1[C@@H](C(=O)OC)C[C@H]2C(=O)OC (some centres undefined) |  | > 100 |  | > 100 |  | > 100 |  | > 100 |  | > 100 |  | > 100 |  | > 100 |  | > 100 |  | > 100 |  | 
CCN(Cc1cc(F)ccc1F)c1ccc(CO)c(Cl)c1 | 2.02 | 23.4 | 0.0553 | 11.7 | 12.2 | 29 | 1.35 | 20.5 | 11.4 | 33.1 | 0.416 | 5.1 | 0.0298 | 0.145 |  |  | 10.8 | 22.9 | 0.181 | 12.7
COc1ccc(Nc2nc3ccccc3c3occc23)cc1 | 12.3 | > 50 | 6.9 | 13.4 | 14.5 | 33 | 10 | 23.7 | 5.72 | 12.4 | > 50 | > 50 |  |  | 9.96 | > 50 | 5.08 | 11.1 | 7.02 | 27.2

From PubChem BioAssay (NCI)
